From patent US20240009180A1, “MEDICINE FOR ALLEVIATING NEUROPATHIC PAIN” (Asahi Kasei Pharma Corporation, priority 2020, published 2024)
Where a name gives a salt, the structure may show the parent alone.

What was measured:
[1] = system: hypersensitivity to mechanical stimulation; details: in vivo; cited from earlier work
CCI model rats = assay: Rat chronic stenosis injury model (CCI or Bennett model), Randall-Selitto test; format: in vivo; details: 2, 10 or 50 mg/kg single oral dose 3 hours before measurement, 12 days after CCI surgery, vs solvent group
Description: In order to confirm the effect of Compound 7 on neuropathic pain, the effect of Compound 7 on hyperalgesia caused by mechanical stimulation occurring in CCI model rats was investigated. Compound 7 was orally administered to rats as an investigational drug, and the following studies were carried out.
As an experimental animal, a 7-week-old Sprague Dawley male rat (220.4 to 328.0 g) was used. The surgery was performed according to the procedure described in Bennett et al., Pain, 1988, 33, 87-107. Under isoflurane anesthesia, the right sciatic nerve was exposed via a blunt incision in the biceps femoris. Proximal to the bifurcation of the sciatic nerve, the nerve was freed of adhering tissue and 4 loose ligatures of 4-0 silk were tied around the nerve. Spacing between ligatures was approximately 1 mm. The muscle was sutured in layers, and the skin closed with silk suture.
The experimental animals were composed of four groups: a solvent administration group and each administration group of either 2, 10 or 50 mg/kg of Compound 7 (Compound 7-administration group). Compound 7 was orally administered to the Compound 7-administration group in a single dose 3 hours before the measurement test performed 12 days after CCI surgery. […]
The baseline threshold value was measured before CCI surgery, and then the pain threshold value was measured 12 days after surgery.

SNL model rats = assay: Rat spinal nerve ligation model (SNL or Chung model), Dynamic Plantar Aesthesiometer test; format: in vivo; details: 50 mg/kg oral once a day for 7 days from the 15th day after SNL surgery, vs solvent group
Description: In order to confirm the effect of Compound 7 on neuropathic pain, the effect of Compound 7 on allodynia caused by mechanical stimulation occurring in SNL model rats was investigated. Compound 7 was orally administered to rats as a test drug, and the following tests were carried out.
As an experimental animal, a 6-week-old Sprague Dawley male rat (180 to 210 g) was used. The surgery was performed according to the procedure described in Chung et al., Pain, 1992, 50, 355-363. Under isoflurane anesthesia, a longitudinal incision was made in the dorsal skin from the thoracic spine to the sacral spine level. After incision and isolation of the paravertebral muscles, the L5 and L6 transverse processes were removed to expose the L5 and L6 spinal nerves. These nerves were ligated with 5-0 silk suture. Sham operated animals were treated identically with the exception that the nerves were not ligated. The muscle was sutured in layers, and the skin was closed with silk suture.
The experimental animals consisted of 6 groups: a sham operation group, a solvent administration group, and each administration group of either 0.4, 2, 10, or 50 mg/kg of Compound 7 (Compound 7-administration group). […]
The pain threshold for mechanical stimulation in the above rats, was measured using a Dynamic Plantar Aesthesiometer (manufactured by Ugo Basile).

[2] = Central tissue distribution in humans: exposure to the cerebrospinal fluid after repeated oral administration; format: in vivo, human; details: healthy subjects
[3] = Study for assessing the central tissue distribution after oral administration to rats; format: in vivo, rat; details: for concentration at 1 h: male, Crl: CD (SD), plasma; for concentration at 1 h / Brain concentration / Spinal cord concentration: rat, oral 30 mg/kg, 1 hour after administration, mean value; for Distribution to blood and central tissue (in words): oral administration
Description: Rats (strain: Crl: CD (SD), male, 7 weeks old, with diet) were orally administered a methylcellulose suspension containing a P2X7 receptor antagonist compound (Compound 7 or Compound 10). Then central tissue was collected from rats 1 hour after its administration, and the compound distribution to the collected central tissue was assessed. The dose of the compound per dose was 30 mg/kg, and the concentration of the compound in the suspension was 3 mg/mL.
The study was carried out with n=2 or n=3.

[4] = Study for pharmacokinetics in blood after oral administration to rats; format: in vivo; details: male, Crl: CD (SD), rat, 30 mg/kg, oral 30 mg/kg once daily
Description: Rats (strain: Crl: CD (SD), male, 7 weeks old, with diet) were orally administered a methylcellulose suspension containing a P2X7 receptor antagonist compound (Compound 7 or Compound 10). Then blood was collected from rats 15 and 30 minutes, 1, 2, 4, 8 and 24 hours after the administration, and the concentration of the compound contained in the collected blood was measured. The dose of the compound per dose was 30 mg/kg, and the concentration of the compound in the suspension was 3 mg/mL. Administration was carried out once daily for 4 consecutive days.
The variations of a blood level of the compound with the passage of time were analyzed by a conventional method, and the pharmacokinetic parameters were estimated.

[5] = system: animal models of bone cancer; details: cited from earlier work
neuropathic pain in rats = details: cited from earlier work
neuropathy model rats = details: 30 mg/kg; cited from earlier work
[6] = system: amphetamine-induced hypersensitivity; details: 30 mg/kg; cited from earlier work

concentration at 1 h [3] [µM]	Brain concentration [3] [nmol/g tissue]	Spinal cord concentration [3] [nmol/g tissue]	AUC(0-t) ([4]; Day 1 of administration) [µM·h]	Cmax ([4]; Day 1 of administration) [µM]	Tmax ([4]; Day 1 of administration) [min]	AUC(0-t) ([4]; Day 4 of administration) [µM·h]	Cmax ([4]; Day 4 of administration) [µM]	Tmax ([4]; Day 4 of administration) [min]	SMILES	Distribution to blood and central tissue (in words) [3]	other results
–	–	–	–	–	–	–	–	–	Clc1cccc(-c2nnnn2Cc2cccnc2)c1Cl [A438079 hydrochloride]	–	Effect on development of hypersensitivity to mechanical stimulation [1]: suppressed the development of hypersensitivity to mechanical stimulation
19.3	23.6	27.7	80.1	18.5	20	77.4	14.7	35	O=C(NCc1ccc(F)cc1Cl)[C@]1(F)CC[C@@](O)(CO)c2ncccc21 [Compound 7, (5S,8S)-N-(2-chloro-4-fluorobenzyl)-5-fluoro-8-hydroxy-8-(hydroxymethyl)-5,6,7,8-tetrahydroquinoline-5-carboxamide]	sufficient distribution to blood, brain and spinal cord	Pain threshold value (paw pressure) lowered by CCI surgery (CCI model rats): significantly increased in all the administration groups; Pain threshold value for mechanical stimulation lowered by SNL surgery (SNL model rats): significantly increased; Exposure to the cerebrospinal fluid [2]: Sufficient Exposure
5.08	9.22	11.4	48.8	9.54	20	45.6	8.27	15	O=C(NCc1ccc(Cl)cc1Cl)[C@]1(F)CC[C@@](O)(CO)c2ncccc21 [Compound 10, (5S,8S)-N-(2,4-dichlorobenzyl)-5-fluoro-8-hydroxy-8-(hydroxymethyl)-5,6,7,8-tetrahydroquinoline-5-carboxamide]	sufficient distribution to blood, brain and spinal cord	–
–	–	–	–	–	–	–	–	–	Clc1cccc(-c2nnnn2Cc2cccnc2)c1Cl [Compound A-438079]	–	Effect on bone cancer-related behavior [5]: could not alleviate bone cancer-related behavior
–	–	–	–	–	–	–	–	–	COc1ccc(CC(=O)NC(NC(=NC#N)Nc2cccc3ncccc23)C(C)(C)C)cc1OC (stereo not shown) [Compound A-740003, N-(1-{[(cyanoimo) (5-quinolinylamino)methyl]amino}-2,2-dimethylpropyl)-2-(3,4-dimethoxyphenyl)acetamide]	–	Effect on neuropathic pain (neuropathic pain in rats): reduced neuropathic pain in rats in a dose-dependent manner
–	–	–	–	–	–	–	–	–	O=C(NCC1(N2CCN(c3ccccc3)CC2)CCOCC1)c1cccnc1Sc1ccccc1 [JNJ-47965567]	–	Efficacy in neuropathy model rats (neuropathy model rats): not a large but a significant efficacy; Effect on amphetamine-induced hypersensitivity [6]: alleviated the amphetamine-induced hypersensitivity
